Counter-ions that a name gives are not always drawn. Like-named read-outs stand apart in the source and are kept apart here.
Test system: centipedegrass
Conditions: for centipedegrass injury: dicamba alone, 0 to 10 scale; for Observed Injury: 0-10 scale, 0=no injury, 10=death
Experimental: A trial was initiated Apr. […] Research was conducted as a randomized complete block design (4 reps), with plot size equal to 6 square meters (2 meter width and 3 meter length). This provided a roughly 1.5 foot buffer between experimental units for reference. Herbicide treatments were applied within a water carrier volume of 40 gallons/acre. A two inch rainfall occurred 48 hours prior to initiation (April 17). Time to next rainfall: roughly 1 inch fell during the late night hours of the 21st and early morning of 22nd. Centipedegrass was approximately 90% green cover at time of treatment-almost fully transitioned from winter dormancy. […] Turf injury (0-10 scale, 0=no injury, 10=death), color (1-9 scale, 1=brown, 9=dark green), and density (0-100%) were evaluated 5, 8, 13, 23, 29 and 44 days after treatment (DAT). Data were subject to analysis of variance (alpha=0.05). Means separations were estimated using Student Knewman Keul's test (alpha=0.05) within ARM v.

SMILES: COc1c(Cl)ccc(Cl)c1C(=O)O [Dicamba MIBPA, N,N-bis(3-aminopropyl)methylamine salt (MIBPA) of dicamba]
- centipedegrass injury (23 DAT, regardless of rate): < 0.8
- centipedegrass injury (29 DAT, across all rates): 0
- Observed Injury (Dicamba MIBPA 0.12 lb ae/a alone, 5 DAA): 0.0
- Observed Injury (Dicamba MIBPA 0.12 lb ae/a alone, 8 DAA): 0.0
- Observed Injury (Dicamba MIBPA 0.12 lb ae/a alone, 13 DAA): 0.0
- Observed Injury (Dicamba MIBPA 0.12 lb ae/a alone, 23 DAA): 0.38
- Observed Injury (Dicamba MIBPA 0.12 lb ae/a alone, 29 DAA): 0.00
- Observed Injury (Dicamba MIBPA 0.12 lb ae/a alone, 44 DAA): 0.25
- Observed Injury (Dicamba MIBPA 0.24 lb ae/a alone, 5 DAA): 0.0
- Observed Injury (Dicamba MIBPA 0.24 lb ae/a alone, 8 DAA): 0.0
- Observed Injury (Dicamba MIBPA 0.24 lb ae/a alone, 13 DAA): 0.0
- Observed Injury (Dicamba MIBPA 0.24 lb ae/a alone, 23 DAA): 0.38
- Observed Injury (Dicamba MIBPA 0.24 lb ae/a alone, 29 DAA): 0.00
- Observed Injury (Dicamba MIBPA 0.24 lb ae/a alone, 44 DAA): 0.38
- Observed Injury (Dicamba MIBPA 0.36 lb ae/a alone, 5 DAA): 0.0
- Observed Injury (Dicamba MIBPA 0.36 lb ae/a alone, 8 DAA): 0.0
- Observed Injury (Dicamba MIBPA 0.36 lb ae/a alone, 13 DAA): 0.0
- Observed Injury (Dicamba MIBPA 0.36 lb ae/a alone, 23 DAA): 0.75
- Observed Injury (Dicamba MIBPA 0.36 lb ae/a alone, 29 DAA): 0.00
- Observed Injury (Dicamba MIBPA 0.36 lb ae/a alone, 44 DAA): 0.50
